According to patent publication US11071729B2, “1′,3′-disubstituted-4-phenyl-3,4,5,6-tetrahydro-2H,1′H-[1,4′]bipyridinyl-2′-ones” (Janssen Pharmaceuticals, Inc., priority 2007, dated 2021):

The compounds below were run against human mGluR2 receptor (Homo sapiens (Human), UniProt Q14416) (assay: [35S]GTPγS binding assay (PAM assay)). Settings: membranes from CHO cells transfected with human mGluR2; in presence of glutamate at EC25 concentration; averages of duplicate values of 11-concentration response curves.
Chain of human mGluR2 receptor (Q14416 19-872): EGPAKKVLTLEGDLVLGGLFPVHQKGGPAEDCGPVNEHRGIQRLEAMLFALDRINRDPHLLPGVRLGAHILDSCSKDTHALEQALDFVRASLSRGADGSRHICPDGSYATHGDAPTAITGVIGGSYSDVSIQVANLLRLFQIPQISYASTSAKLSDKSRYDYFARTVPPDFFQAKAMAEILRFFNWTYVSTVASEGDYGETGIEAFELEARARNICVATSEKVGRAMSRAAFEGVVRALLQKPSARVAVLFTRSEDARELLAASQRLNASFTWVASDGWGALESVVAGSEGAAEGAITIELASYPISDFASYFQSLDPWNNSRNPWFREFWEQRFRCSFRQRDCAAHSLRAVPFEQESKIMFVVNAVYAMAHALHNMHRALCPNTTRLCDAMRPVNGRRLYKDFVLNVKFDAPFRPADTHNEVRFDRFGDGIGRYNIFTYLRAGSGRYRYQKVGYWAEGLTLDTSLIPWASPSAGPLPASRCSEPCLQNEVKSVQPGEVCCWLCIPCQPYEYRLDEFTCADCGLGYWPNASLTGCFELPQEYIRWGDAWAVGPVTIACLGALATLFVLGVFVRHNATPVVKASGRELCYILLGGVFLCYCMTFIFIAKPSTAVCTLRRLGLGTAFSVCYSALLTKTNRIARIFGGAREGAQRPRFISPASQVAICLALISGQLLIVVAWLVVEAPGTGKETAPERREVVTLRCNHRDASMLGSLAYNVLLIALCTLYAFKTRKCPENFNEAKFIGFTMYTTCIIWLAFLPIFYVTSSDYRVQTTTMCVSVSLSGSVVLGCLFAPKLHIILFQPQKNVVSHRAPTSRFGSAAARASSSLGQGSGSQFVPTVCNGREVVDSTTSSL
Type: biochemical
Procedure: The [^35S]GTPγS binding assay is a functional membrane-based assay used to study G-protein coupled receptor (GPCR) function whereby incorporation of a non-hydrolysable form of GTP, [^35S]GTPγS (guanosine 5′-triphosphate, labelled with […] ^35S), is measured. The G-protein […] subunit catalyzes the exchange of guanosine 5′-diphosphate (GDP) by guanosine triphosphate (GTP) and on activation of the GPCR by an agonist, [^35S]GTPγS, becomes incorporated and cannot be cleaved to continue the exchange cycle (Harper (1998) Current Protocols in Pharmacology 2.6.1-10, John Wiley & Sons, Inc.). […] Here we describe the use of the [^35S]GTPγS binding assay using membranes from cells transfected with the human mGluR2 receptor and adapted from Schaffhauser et al ((2003) Molecular Pharmacology 4:798-810) for the detection of the positive allosteric modulation (PAM) properties of the compounds of this invention.
CHO-cells were cultured to pre-confluence and stimulated with 5 mM butyrate for 24 hours, prior to washing in PBS, and then collected by scraping in homogenisation buffer (50 mM Tris-HCl buffer, pH 7.4, 4° C.). Cell lysates were homogenized briefly (15 s) using an ultra-turrax homogenizer. The homogenate was centrifuged at 23 500×g for 10 minutes and the supernatant discarded. The pellet was resuspended in 5 mM Tris-HCl, pH 7.4 and centrifuged again (30 000×g, 20 min, 4° C.). The final pellet was resuspended in 50 mM HEPES, pH 7.4 and stored at −80° C. in appropriate aliquots before use. Protein concentration was determined by the Bradford method (Bio-Rad, USA) with bovine serum albumin as standard.
Measurement of mGluR2 positive allosteric modulatory activity of test compounds in membranes containing human mGluR2 was performed using frozen membranes that were thawed and briefly homogenized prior to pre-incubation in 96-well microplates (15 μg/assay well, 30 minutes, 30° C.) in assay buffer (50 mM HEPES pH 7.4, 100 mM NaCl, 3 mM MgCl2, 50 μM GDP, 10 μg/ml saponin,) with increasing concentrations of positive allosteric modulator (from 0.3 nM to 50 μM) and either a minimal pre-determined concentration of glutamate (PAM assay), or no added glutamate. For the PAM assay, membranes were pre-incubated with glutamate at EC25 concentration, i.e. a concentration that gives 25% of the maximal response glutamate, and is in accordance to published data (Pin et al. (1999) Eur. J. Pharmacol. 375:277-294). After addition of [^35S]GTPγS (0.1 nM, f.c.) to achieve a total reaction volume of 200 μl, microplates were shaken briefly and further incubated to allow [^35S]GTPγS incorporation on activation (30 minutes, 30° C.). The reaction was stopped by rapid vacuum filtration over glass-fibre filter plates (Unifilter 96-well GF/B filter plates, Perkin-Elmer, Downers Grove, USA) microplate using a 96-well plate cell harvester (Filtermate, Perkin-Elmer, USA), and then by washing three times with 300 μl of ice-cold wash buffer (Na2PO4.2H2O 10 mM, NaH2PO4.H2O 10 mM, pH=7.4). Filters were then air-dried, and 40 μl of liquid scintillation cocktail (Microscint-O) was added to each well, and membrane-bound [^35S]GTPγS was measured in a 96-well scintillation plate reader (Top-Count, Perkin-Elmer, USA). Non-specific [^35S]GTPγS binding is determined in the presence of cold 10 μM GTP.

Row | SMILES | GTPgS - hR2 PAM pEC50
1 | O=c1c(Cl)c(N2CCC(c3ccccc3)CC2)ccn1CC1CC1 [Compound 1, 3′-Chloro-1′-cyclopropylmethyl-4-phenyl-3,4,5,6-tetrahydro-2H,1′H-[1,4′]bipyridinyl-2′-one] | 6.53
2 | O=c1c(Br)c(N2CCC(c3ccccc3)CC2)ccn1CC1CC1 [Compound 3, 3′-Bromo-1′-cyclopropylmethyl-4-phenyl-3,4,5,6-tetrahydro-2H,1′H-[1,4′]bipyridinyl-2′-one] | 6.88
3 | O=c1c(C(F)(F)F)c(N2CCC(c3ccccc3)CC2)ccn1CC1CC1 [Compound 4, 1′-Cyclopropylmethyl-4-phenyl-3′-trifluoromethyl-3,4,5,6-tetrahydro-2H,1′H-[1,4′]bipyridinyl-2′-one] | 6.45
4 | O=c1c(Cl)c(N2CCC(c3ccccc3)CC2)ccn1Cc1ccc(OC(F)(F)F)cc1 [Compound 5, 3′-Chloro-4-phenyl-1′-(4-trifluoromethoxybenzyl)-3,4,5,6-tetrahydro-2H,1′H-[1,4′]bipyridinyl-2′-one] | 6.90
5 | N#CC1(c2ccccc2)CCN(c2ccn(CC3CC3)c(=O)c2Cl)CC1 [Compound 6, 3′-Chloro-1′-cyclopropylmethyl-2′-oxo-4-phenyl-3,4,5,6,1′,2′-hexahydro-2H-[1,4′]bipyridinyl-4-carbonitrile] | 6.34
6 | O=c1c(C2CC2)c(N2CCC(c3ccccc3)CC2)ccn1CC1CC1 [Compound 8, 3′-Cyclopropyl-1′-cyclopropylmethyl-4-phenyl-3,4,5,6-tetrahydro-2H,1′H-[1,4′]bipyridinyl-2′-one] | 6.04
7 | CC(C)(O)c1ccc(C2CCN(c3ccn(CC4CC4)c(=O)c3Cl)CC2)cc1 [Compound 9, 3′-Chloro-1′-cyclopropylmethyl-4-[4-(1-hydroxy-1-methyl-ethyl)-phenyl]-3,4,5,6-tetrahydro-2H,1′H-[1,4′]bipyridinyl-2′-one] | 6.57
8 | O=c1c(Cl)c(N2CCC(c3ccccc3)CC2)ccn1CCC1CC1 [Compound 10] | 6.88
9 | CCCCCn1ccc(N2CCC(c3ccccc3)CC2)c(Cl)c1=O [Compound 11] | 7.11
10 | O=c1c(Cl)c(N2CCC(c3ccccc3F)CC2)ccn1CC1CC1 [Compound 12] | 7.03
11 | O=c1c(Cl)c(N2CCC(c3ccc(N4CCOCC4)cc3)CC2)ccn1CC1CC1 [Compound 13] | 6.64
12 | O=c1c(Cl)c(N2CCC(c3ccc(F)cc3F)CC2)ccn1CC1CC1 [Compound 14] | 6.92
13 | O=c1c(Cl)c(N2CCC(c3ccccc3Cl)CC2)ccn1CC1CC1 [Compound 15] | 7.00
14 | O=c1c(Cl)c(N2CCC(c3cccc(C(F)(F)F)c3)CC2)ccn1CC1CC1 [Compound 16] | 7.12
15 | O=c1c(Cl)c(N2CCC(F)(c3ccccc3)CC2)ccn1CC1CC1 [Compound 17] | 6.57
16 | CC(C)CCn1ccc(N2CCC(c3ccccc3)CC2)c(Cl)c1=O [Compound 18] | 7.20
17 | CC(C)Cn1ccc(N2CCC(c3ccccc3)CC2)c(Cl)c1=O [Compound 19] | 6.71
18 | O=c1c(Cl)c(N2CCC(OCCF)(c3ccccc3)CC2)ccn1CC1CC1 [Compound 20, 3′-Chloro-1′-cyclopropylmethyl-4-(2-fluoro-ethoxy)-4-phenyl-3,4,5,6-tetrahydro-2H,1′H-[1,4′]bipyridinyl-2′-one] | 6.91
19 | O=c1c(Cl)c(N2CCC(CF)(c3ccccc3)CC2)ccn1CC1CC1 [Compound 21, 3′-Chloro-1′-cyclopropylmethyl-4-fluoromethyl-4-phenyl-3,4,5,6-tetrahydro-2H,1′H-[1,4′]bipyridinyl-2′-one] | 6.25
20 | CCCCn1ccc(N2CCC(CO)(c3ccccc3)CC2)c(Cl)c1=O [Compound 22, 1′-Butyl-3′-chloro-4-hydroxymethyl-4-phenyl-3,4,5,6-tetrahydro-2H,1′H-[1,4′]bipyridinyl-2′-one] | 6.05
21 | CC(C)CCn1ccc(N2CCC(F)(c3ccccc3)CC2)c(Cl)c1=O [Compound 23] | 6.58
22 | CC(C)CCn1ccc(N2CCC(c3ccc(F)cc3F)CC2)c(Cl)c1=O [Compound 24] | 6.91
23 | CCCCn1ccc(N2CCC(c3ccc(F)cc3F)CC2)c(Cl)c1=O [Compound 25] | 6.83
24 | O=c1c(Cl)c(N2CCC(F)(c3ccccc3)CC2)ccn1CCC1CC1 [Compound 26] | 6.41
25 | CCCCn1ccc(N2CCC(c3ccc(C(C)(C)O)cc3)CC2)c(Cl)c1=O [Compound 27] | 6.46
26 | CCCCn1ccc(N2CCC(c3ccccc3C(C)(C)O)CC2)c(Cl)c1=O [Compound 28, 1′-Butyl-3′-chloro-4-[2-(1-hydroxy-1-methyl-ethyl)-phenyl]-3,4,5,6-tetrahydro-2H,1′H-[1,4′]bipyridinyl-2′-one] | 7.06
27 | CCCCn1ccc(N2CCC(c3ccc(C(C)(C)O)cc3F)CC2)c(Cl)c1=O [Compound 29, 1′-Butyl-3′-chloro-4-[2-fluoro-4-(1-hydroxy-1-methyl-ethyl)-phenyl]-3,4,5,6-tetrahydro-2H,1′H-[1,4′]bipyridinyl-2′-one] | 6.88

Same assay, conditions: membranes from CHO cells transfected with human mGluR2; in presence of glutamate at EC25 concentration; averages of duplicate values of 11-concentration response curves; read-out: GTPgS - hR2 PAM pEC50 (converted)

Row | SMILES | EC50
28 | CCCCn1ccc(N2CCC(F)(c3ccccc3)CC2)c(Cl)c1=O [Compound 7] | 0.24 µM
